{"source": "patent US20180153995A1", "about": "“USE OF ANTIMICROBIAL POLYMERS FOR RE-SENSITIZATION OF MICROORGANISMS UPON EMERGENCE OF RESISTANCE TO ANTI-MICROBIAL AGENTS” (Technion Research & Development Foundation Limited, priority 2008, published 2018)", "key": {"Escherichia coli strains": {"test_system": "Escherichia coli strains", "format": "cell-based", "conditions": "isogenic pair of E. coli K-12 strains", "description": "(§1) MICs were determined by microdilution susceptibility testing in 96-well plates (by Nunc) using inocula of 10^5 bacteria per ml. Cell populations were evaluated by optical density measurements at 620 nm and were calibrated against a set of standards. Hundred (100) μl of a bacterial suspension were added to 100 μl of culture medium (control) or to 100 μl of culture medium containing various polymer concentrations in 2-fold serial dilutions. Inhibition of proliferation was determined by optical density measurements at 620 nm after an incubation period of 24 hours at 37° C."}, "[1]": {"test_system": "E. coli K-12 resistant wild type", "format": "cell-based, Escherichia coli", "conditions": "E. coli K-12 multi-resistant wild type"}, "MRSA 15903": {"test_system": "MRSA 15903", "assay": "microbe, parasite or virus in culture", "format": "cell-based, Staphylococcus aureus", "conditions": "S. aureus CI-15903; +polymer (⅓ MIC) C12(5-ene)KKNC12KNH2", "description": "The fractionary inhibitory (FIC) concentration index for combinations of two antimicrobial agents was calculated as follows: FIC index=FICA+FICB=A/MICA+B/MICB where A and B are the MIC values of agent A and agent B in the combination, MICA and MICB are the MICs of agent A and agent B alone, and FICA and FICB are the FICs of agent A and agent B.\nThe FIC indexes were interpreted as follows: less than 0.5 indicates a clear re-sensitizing effect; from 0.5 to 4 indicates a marginal or null re-sensitizing effect; and over 4 indicates antagonism.\nExperimental data for FIG. 4 were obtained as follows."}, "E. coli CI14213": {"test_system": "E. coli CI14213", "format": "cell-based, Escherichia coli", "description": "as §1"}, "[2]": {"test_system": "E. coli K-12 efflux knockout mutant", "format": "cell-based, Escherichia coli", "conditions": "E. coli K-12 strain with decreased levels of efflux pumps", "description": "as §1"}, "[3]": {"test_system": "E. coli N281 (L22 mutation)", "format": "cell-based, Escherichia coli", "conditions": "E. coli N281; polymer alone"}, "[4]": {"test_system": "E. coli N282 (L4 mutation)", "format": "cell-based, Escherichia coli", "conditions": "E. coli N282; polymer alone"}}, "note": "Values joined by “and” are separate entries in the source; they are usually repeats but may differ in a detail not shown here. Equal values may be shown once."}
{"smiles": "CCCCCCCCCCCC(=O)N[C@@H](CCCCN)C(=O)NCCCCCCCC(=O)N[C@@H](CCCCN)C(=O)NCCCCCCCC(=O)N[C@@H](CCCCN)C(=O)NCCCCCCCC(=O)N[C@@H](CCCCN)C(=O)NCCCCCCCC(=O)N[C@@H](CCCCN)C(=O)NCCCCCCCC(=O)N[C@@H](CCCCN)C(=O)NCCCCCCCC(=O)N[C@@H](CCCCN)C(=O)NCCCCCCCC(=O)N[C@@H](CCCCN)C(N)=O", "note": "[C12K(NC8K)7NH2]", "values": [{"measurement": "MIC of polymer", "setting": "Escherichia coli strains", "value": 3.125, "unit": "µg/mL"}, {"measurement": "effect of polymer on antibiotics potency", "setting": "[1]", "value": "enhanced antibiotics potency"}, {"measurement": "MIC", "setting": "MRSA 15903", "value": 12.5, "unit": "µg/mL"}, {"measurement": "MIC of polymer", "setting": "E. coli CI14213; CI14213", "value": 3.1, "unit": "µM"}, {"measurement": "re-sensitizing effect of polymer on oxacillin", "setting": "E. coli CI14213; E. coli CI14213, polymer well below MIC (up to ⅛ MIC), 24 hours", "value": "endowed potency to oxacillin"}, {"measurement": "effect of polymer on antibiotic MICs", "setting": "[2]", "value": "not altered significantly"}, {"measurement": "MIC of polymer", "setting": "[3]", "value": 3.1, "unit": "µM"}, {"measurement": "MIC of polymer", "setting": "[4]", "value": "1.6 µM and 3.1 µM"}]}
